Laboratory results taken from the NIST ThermoML archive (doi:10.1021/je100864e).

Test: mn = molality of the nth substance listed, in mol/kg
Settings: 101 kPa, Liquid; for speed of sound: Pulse-echo method

O=C([O-])CC(O)(CC(=O)O)C(=O)O.[Na+] [sodium dihydrogen citrate] + O
Settings | mass density, 288.15 K [kg/m3] | mass density, 293.15 K [kg/m3] | speed of sound, 288.15 K [m/s] | speed of sound, 293.15 K [m/s] | speed of sound, 298.15 K [m/s]
m1 = 0.0093 | 1000.17 | 999.26 | 1467.7 | 1483.7 | 1497.9
m1 = 0.0117 | 1000.44 | 999.519 | 1467.9 | 1483.9 | 1498.1
m1 = 0.0125 | 1000.53 | 999.616 | 1468 | 1484 | 1498.2
m1 = 0.0138 | 1000.68 | 999.756 | 1468.1 | 1484.1 | 1498.3
m1 = 0.0155 | 1000.87 | 999.956 | 1468.3 | 1484.3 | 1498.5
m1 = 0.0163 | 1000.97 | 1000.04 | 1468.4 | 1484.4 | 1498.5
m1 = 0.0187 | 1001.24 | 1000.31 | 1468.7 | 1484.7 | 1498.8
m1 = 0.0202 | 1001.42 | 1000.49 | 1468.9 | 1484.8 | 1498.9
m1 = 0.0209 | 1001.49 | 1000.56 | 1468.9 | 1484.9 | 1499
m1 = 0.024 | 1001.85 | 1000.91 | 1469.3 | 1485.2 | 1499.3
m1 = 0.0279 | 1002.29 | 1001.35 | 1469.8 | 1485.6 | 1499.7
m1 = 0.0327 | 1002.84 | 1001.89 | 1470.2 | 1486 | 1500.1
m1 = 0.0376 | 1003.39 | 1002.44 | 1470.8 | 1486.6 | 1500.6
m1 = 0.0409 | 1003.78 | 1002.82 | 1471.1 | 1486.9 | 1500.9
m1 = 0.047 | 1004.47 | 1003.49 | 1471.8 | 1487.6 | 1501.5
m1 = 0.0681 | 1006.85 | 1005.84 | 1474 | 1489.7 | 1503.5
m1 = 0.0937 | 1009.71 | 1008.67 | 1476.8 | 1492.3 | 1505.9
m1 = 0.1194 | 1012.55 | 1011.47 | 1479.5 | 1494.8 | 1508.3
m1 = 0.144 | 1015.25 | 1014.13 | 1482 | 1497.2 | 1510.5
m1 = 0.1678 | 1017.83 | 1016.68 | 1484.6 | 1499.6 | 1512.7
m1 = 0.1911 | 1020.35 | 1019.17 | 1487 | 1501.8 | 1514.9
m1 = 0.2165 | 1023.07 | 1021.86 | 1489.5 | 1504.1 | 1517
m1 = 0.2412 | 1025.7 | 1024.45 | 1492 | 1506.5 | 1519.3
m1 = 0.2934 | 1031.2 | 1029.89 | 1497.3 | 1511.5 | 1524
m1 = 0.3205 | 1034.04 | 1032.69 | 1500 | 1514 | 1526.3
m1 = 0.3395 | 1036.01 | 1034.64 | 1501.8 | 1515.8 | 1528
m1 = 0.3728 | 1039.43 | 1038.03 | 1505.1 | 1518.8 | 1530.9
m1 = 0.3936 | 1041.57 | 1040.14 | 1507.1 | 1520.7 | 1532.7
